System: male spontaneously hypertensive rats
Test: Decrease in systolic blood pressure in spontaneously hypertensive rats after intravenous bolus injection, indirect (tail-cuff) method
Type: in vivo, rat
Settings: for Decrease in systolic blood pressure (mmHg) time after administration (hour) 0.5: 0.5 hour after administration; for Decrease in systolic blood pressure (mmHg) time after administration (hour) 4: 4 hours after administration
Description: As test animals, four male spontaneously hypertensive rats (weight 400 to 440 g) that were sufficiently adapted for feeding and in which hypertension was confirmed were used.
Physiological saline aqueous solution containing 2.5% Nicolle and 2.5% ethanol of sample was intravenously administered by bolus injection at a dose of 1 ml per 1 kg of body weight. Systolic blood pressure after administration was measured by the indirect (tail-cuff) method.

With `CCC(C#N)(CCCN1CCC(=C2c3ccccc3C=Cc3ccccc32)CC1)c1cccc(C(F)(F)F)c1.Cl` (stereo not drawn) [Example 149, 5-(4-(5H-Dibenzo[a,d]cyclohepten-5-ylidene)-1-piperidinyl)-2-ethyl-2-(3-trifluoromethylphenyl)valeronitrile hydrochloride] the “Decrease in systolic blood pressure (mmHg) time after administration (hour) 0.5” value (“Decrease in systolic blood pressure … (hour) 0.5” for short) (dose 10 mg/kg i.v. bolus) was −116 mmHg and the “Decrease in systolic blood pressure (mmHg) time after administration (hour) 4” value (shortened to “Decrease in systolic blood pressure … (hour) 4”) (dose 10 mg/kg i.v. bolus) was −32 mmHg.

With `Cl.N#Cc1cccc(CN2CCC(=C3c4ccccc4C=Cc4ccccc43)CC2)c1` [Example 159, 1-(3-Cyanobenzyl)-4-(5H-dibenzo[a,d]cyclohepten-5-ylidene)piperidine hydrochloride] the “Decrease in systolic blood pressure … (hour) 0.5” value (dose 10 mg/kg i.v. bolus) was −27 mmHg and the “Decrease in systolic blood pressure … (hour) 4” value (dose 10 mg/kg i.v. bolus) was −12 mmHg.

With `C1=Cc2ccccc2C(=C2CCN(CCC3Cc4ccccc4C3)CC2)c2ccccc21.Cl` [Example 310, 2-(2-(4-(5H-Dibenzo[a,d]cyclohepten-5-ylidene)-1-piperidinyl)-1-ethyl)indane hydrochloride] the “Decrease in systolic blood pressure … (hour) 0.5” value (dose 10 mg/kg i.v. bolus) was −90 mmHg and the “Decrease in systolic blood pressure … (hour) 4” value (dose 10 mg/kg i.v. bolus) was −18 mmHg.

With “1-(4-Acetylaminominocinnamyl)-4-(5H-Dibenzo[a,d]thiepiz-5-ylidene)-1-piperidine hydrochloride [Example 327]” the “Decrease in systolic blood pressure … (hour) 0.5” value (dose 3 mg/kg i.v. bolus) was −10 mmHg and the “Decrease in systolic blood pressure … (hour) 4” value (dose 3 mg/kg i.v. bolus) was −43 mmHg.

With “5-(4-(5H-Dibenzo[a,d]cyclohepten-5-ylidene)-1-piperidinyl-2-(3,4-dimethoxyphenyl)valeronitrile hydrochloride [Example 123]” the “Decrease in systolic blood pressure … (hour) 0.5” value (dose 10 mg/kg i.v. bolus) was −55 mmHg and the “Decrease in systolic blood pressure … (hour) 4” value (dose 10 mg/kg i.v. bolus) was −7 mmHg.

In the case of `COc1cccc(C=CCN2CCC(=C3c4ccccc4C=Cc4ccccc43)CC2)c1.Cl` [Example 348, 4-(5H-Dibenzo[a,d]cyclohepten-5-ylidene)-1-(3-methoxycinnamyl)piperidine hydrochloride], the “Decrease in systolic blood pressure … (hour) 0.5” value (dose 3 mg/kg i.v. bolus) is reported as −105 mmHg and the “Decrease in systolic blood pressure … (hour) 4” value (dose 3 mg/kg i.v. bolus) is reported as −12 mmHg.

With `Cl.Fc1ccccc1CN1CCC(=C2c3ccccc3C=Cc3ccccc32)CC1` [Example 111, 4-(5H-Dibenzo[a,d]cyclohepten-5-ylidene)-1-(2-fluorobenzyl)piperidine hydrochloride] the “Decrease in systolic blood pressure … (hour) 0.5” value (dose 10 mg/kg i.v. bolus) was −98 mmHg and the “Decrease in systolic blood pressure … (hour) 4” value (dose 10 mg/kg i.v. bolus) was −13 mmHg.

`Cl.O=[N+]([O-])c1ccccc1S(=O)(=O)NCCN1CCC(=C2c3ccccc3C=Cc3ccccc32)CC1` [Example 25, 4-(5H-Dibenzo[a,d]cyclohepten-5-ylidene)-1-(2-(2-nitrobenzenesulfonyl)aminoethyl)piperidine hydrochloride] was tested, and the “Decrease in systolic blood pressure … (hour) 0.5” value (dose 10 mg/kg i.v. bolus) was −8 mmHg and the “Decrease in systolic blood pressure … (hour) 4” value (dose 10 mg/kg i.v. bolus) was −7 mmHg.

With `CC(=O)N1CCCC(CCCN2CCC(=C3c4ccccc4C=Cc4ccccc43)CC2)C1.Cl` (stereo not drawn) [Example 280, 1-(n-Acetyl-3-piperidinyl)-3-(4-(5H-Dibenzo[a,d]cyclohepten-5-ylidene)-1-piperidinyl)propane hydrochloride] the “Decrease in systolic blood pressure … (hour) 0.5” value (dose 10 mg/kg i.v. bolus) was −50 mmHg and the “Decrease in systolic blood pressure … (hour) 4” value (dose 10 mg/kg i.v. bolus) was −11 mmHg.

In the case of `CC(=O)OCC1(CCCCN2CCC(=C3c4ccccc4C=Cc4ccccc43)CC2)CCCCC1.Cl` [Example 273, 1-Acetoxymethyl-1-(4-(4-(5H-dibenzo[a,d]cyclohepten-5-ylidene)-1-piperidinyl)-1-butyl)cyclohexane hydrochloride], the “Decrease in systolic blood pressure … (hour) 0.5” value (dose 10 mg/kg i.v. bolus) is reported as −37 mmHg and the “Decrease in systolic blood pressure … (hour) 4” value (dose 10 mg/kg i.v. bolus) is reported as 5 mmHg.

For `C1=Cc2ccccc2C(=C2CCN(Cc3cc4ccccc4[nH]3)CC2)c2ccccc21.Cl` [Example 385, 4-(5H-Dibenzo[a,d]cyclohepten-5-ylidene)-1-(2-indolylmethyl)piperidine hydrochloride], the “Decrease in systolic blood pressure … (hour) 0.5” value (dose 10 mg/kg i.v. bolus) was −123 mmHg and the “Decrease in systolic blood pressure … (hour) 4” value (dose 10 mg/kg i.v. bolus) was −96 mmHg.

`Cl.O=[N+]([O-])c1ccccc1C=CCN1CCC(=C2c3ccccc3C=Cc3ccccc32)CC1` [Example 302, 4-(5H-Dibenzo[a,d]cyclohepten-5-ylidene)-1-(2-nitrocinnamyl)piperidinyl hydrochloride] was tested, and the “Decrease in systolic blood pressure … (hour) 0.5” value (dose 10 mg/kg i.v. bolus) was −83 mmHg and the “Decrease in systolic blood pressure … (hour) 4” value (dose 10 mg/kg i.v. bolus) was −41 mmHg.

In the case of `Cl.Oc1cccc(C=CCN2CCC(=C3c4ccccc4C=Cc4ccccc43)CC2)c1` [Example 367, 4-(5H-Dibenzo[a,d]cyclohepten-5-ylidene)-1-(3-hydroxycinnamyl)piperidine hydrochloride], the “Decrease in systolic blood pressure … (hour) 0.5” value (dose 10 mg/kg i.v. bolus) is reported as −98 mmHg and the “Decrease in systolic blood pressure … (hour) 4” value (dose 10 mg/kg i.v. bolus) is reported as −63 mmHg.

`CC(=O)Nc1ccccc1C=CCN1CCC(=C2c3ccccc3C=Cc3ccccc32)CC1.Cl` [Example 304, 1-(2-Acetylaminocinnamyl)-4-(5H-dibenzo[a,d]cyclohepten-5-ylidene)-1-piperidine hydrochloride] was tested, and the “Decrease in systolic blood pressure … (hour) 0.5” value (dose 10 mg/kg i.v. bolus) was −49 mmHg and the “Decrease in systolic blood pressure … (hour) 4” value (dose 10 mg/kg i.v. bolus) was −5 mmHg.

For `O=C(Cc1ccc(F)cc1)N1CCC(=C2c3ccccc3C=Cc3ccccc32)CC1` [Example 191, 4-(5H-Dibenzo[a,d]cyclohepten-5-ylidene)-1-(2-(4-fluorophenyl)acetyl)piperidine], the “Decrease in systolic blood pressure … (hour) 0.5” value (dose 10 mg/kg i.v. bolus) was −29 mmHg and the “Decrease in systolic blood pressure … (hour) 4” value (dose 10 mg/kg i.v. bolus) was −20 mmHg.

For `CCOC(=O)C(CCCN1CCC(=C2c3ccccc3C=Cc3ccccc32)CC1)C1CCCCC1.Cl` (stereo not drawn) [Example 220, Ethyl 2-cyclohexyl-5-(4-(5H-Dibenzo[a,d]cyclohepten-5-ylidene)-1-piperidinyl)valerate hydrochloride], the “Decrease in systolic blood pressure … (hour) 0.5” value (dose 10 mg/kg i.v. bolus) was −148 mmHg and the “Decrease in systolic blood pressure … (hour) 4” value (dose 10 mg/kg i.v. bolus) was −54 mmHg.

For `O=C(O)CCCN1CCC(=C2c3ccccc3C=Cc3ccccc32)CC1` [Example 200], the “Decrease in systolic blood pressure … (hour) 0.5” value (dose 10 mg/kg i.v. bolus) was −10 mmHg and the “Decrease in systolic blood pressure … (hour) 4” value (dose 10 mg/kg i.v. bolus) was −24 mmHg.

In the case of `COc1cc(C=CCN2CCC(=C3c4ccccc4C=Cc4ccccc43)CC2)cc(OC)c1OC.Cl` [Example 320, 4-(5H-Dibenzo[a,d]cyclohepten-5-ylidene)-1-(3,4,5-trimethoxycinnamyl)piperdine hydrochloride], the “Decrease in systolic blood pressure … (hour) 0.5” value (dose 10 mg/kg i.v. bolus) is reported as −147 mmHg and the “Decrease in systolic blood pressure … (hour) 4” value (dose 10 mg/kg i.v. bolus) is reported as −113 mmHg.

From USRE38257E1, “Piperdine derivatives and hypotensives containing the same” (Ajinomoto Co., Inc., priority 1988, dated 2003)
